From patent publication US7015329B2 (Janssen Pharmaceutica N. V., priority 2003, dated 2006)

Experiments:
PPAR gamma = molecular target: T1, PPAR gamma (Homo sapiens, UniProt P37231); test: Transfection assay for PPAR receptors (GAL4-LBD luciferase reporter), PPAR gamma; assay type: cell-based; conditions: 18–24 hrs
T1 construct: expressed in transfected cells; host or cells: HEK293
T1 sequence (P37231 238-503 limits assumed): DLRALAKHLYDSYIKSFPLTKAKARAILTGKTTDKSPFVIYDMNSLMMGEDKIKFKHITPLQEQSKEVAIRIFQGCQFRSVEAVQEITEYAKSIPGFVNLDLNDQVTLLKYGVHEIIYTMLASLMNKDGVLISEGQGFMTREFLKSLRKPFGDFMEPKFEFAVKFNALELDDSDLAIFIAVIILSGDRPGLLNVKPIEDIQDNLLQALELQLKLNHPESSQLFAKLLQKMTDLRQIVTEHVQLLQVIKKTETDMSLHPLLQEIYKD
Experimental: (§1) Transfection Assay Method for PPAR Receptors
(§2) HEK293 cells were grown in DMEM/F12 medium supplemented with 10% FBS and glutamine (Invitrogen) and incubated in a 5% CO2 incubator at 37° C. The cells were co-transfected using DMRIE-C reagent (Invitrogen) in serum free medium (Opti-MEM, Invitrogen) with two mammalian expression plasmids, one containing the DNA sequence coding for the ligand binding domains of either PPARαg or d fused to the yeast GAL4 DNA binding domain and the other containing the promoter sequence of the yeast GAL4 (UAS) fused to the firefly luciferase cDNA reporter. The next day, the medium was changed to DMEM/F12 medium supplemented with 5% charcoal treated serum (Hyclone) and glutamine. After 6 hrs the cells were trypsinized and seeded at a density of 50,000 cells/well into 96 well plates and incubated overnight as above. The cells were then treated with -test compounds or vehicle and incubated for 18–24 hrs as above. Luciferase reporter activity was measured using the Steady-Glo Luciferase Assay Kit from Promega. DMRIE-C Reagent was purchased from GIBCO Cat. No.10459-014. […] Steady-Glo Luciferase Assay Kit was purchased from Promega (Part#E254B).

PPAR delta = molecular target: T2, PPAR delta (Homo sapiens, UniProt Q03181); test: Transfection assay for PPAR receptors (GAL4-LBD luciferase reporter), PPAR delta; assay type: cell-based; conditions: 18–24 hrs
T2 construct: expressed in transfected cells; host or cells: HEK293
T2 sequence (Q03181 211-439 limits assumed): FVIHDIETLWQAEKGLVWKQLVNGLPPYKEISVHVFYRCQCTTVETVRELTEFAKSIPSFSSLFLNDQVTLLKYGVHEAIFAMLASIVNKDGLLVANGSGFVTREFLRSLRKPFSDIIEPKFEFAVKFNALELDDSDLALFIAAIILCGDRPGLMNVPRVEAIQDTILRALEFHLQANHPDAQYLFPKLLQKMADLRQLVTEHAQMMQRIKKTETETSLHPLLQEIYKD
Experimental: as §1, §2

PPAR alpha = molecular target: T3, PPAR alpha (Homo sapiens, UniProt Q07869); test: Transfection assay for PPAR receptors (GAL4-LBD luciferase reporter), PPAR alpha; assay type: cell-based; conditions: 18–24 hrs
T3 construct: expressed in transfected cells; host or cells: HEK293
T3 sequence (Q07869 239-466 limits assumed): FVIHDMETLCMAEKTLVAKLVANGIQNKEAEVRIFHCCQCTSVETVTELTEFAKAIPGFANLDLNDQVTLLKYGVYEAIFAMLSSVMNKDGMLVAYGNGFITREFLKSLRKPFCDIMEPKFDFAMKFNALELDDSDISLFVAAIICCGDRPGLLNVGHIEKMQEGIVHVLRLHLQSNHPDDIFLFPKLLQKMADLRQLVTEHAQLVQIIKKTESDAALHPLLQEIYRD
Experimental: as §1
HEK293 cells were grown in DMEM/F12 medium supplemented with 10% FBS and glutamine (Invitrogen) and incubated in a 5% CO2 incubator at 37° C. The cells were co-transfected using DMRIE-C reagent (Invitrogen) in serum free medium (Opti-MEM, Invitrogen) with two mammalian expression plasmids, one containing the DNA sequence coding for the ligand binding domains of either PPARαg or d fused to the yeast GAL4 DNA binding domain and the other containing the promoter sequence of the yeast GAL4 (UAS) fused to the firefly luciferase cDNA reporter. The next day, the medium was changed to DMEM/F12 medium supplemented with 5% charcoal treated serum (Hyclone) and glutamine. After 6 hrs the cells were trypsinized and seeded at a density of 50,000 cells/well into 96 well plates and incubated overnight as above. The cells were then treated with -test compounds or vehicle and incubated for 18–24 hrs as above. Luciferase reporter activity was measured using the Steady-Glo Luciferase Assay Kit from Promega. DMRIE-C Reagent was purchased from GIBCO Cat. No.10459-014. OPTI-MEM I Reduced Serum Medium was purchased from GIBCO (Cat. No. 31985). Steady-Glo Luciferase Assay Kit was purchased from Promega (Part#E254B).
A variety of example compounds have been made and tested, with a range of in vitro results. Below are representative compounds and data; in some cases, where multiple EC50's are shown, multiple measurements were taken. Naturally, different compounds in Formula (I) may have not have activities identical to any one compound below.

[1] = system: differentiated THP-1 monocytes; conditions: cited from earlier work
[2] = Table 1, HEK293 cells co-transfected with PPAR LBD-GAL4 and GAL4 (UAS) luciferase reporter
[3] = Table 2, compounds of interest, HEK293 cells, PPAR LBD-GAL4 luciferase reporter

SMILES	EC50 (PPAR gamma; [2]) [nM]	EC50 (PPAR delta; [2]) [nM]	EC50 (PPAR alpha; [2]) [nM]	EC50 (PPAR gamma; [3]) [nM]	EC50 (PPAR delta; [3]) [nM]	EC50 (PPAR alpha; [3]) [nM]	ABCA1 mRNA expression [1]	cholesterol efflux [1]
Cc1cc(SCc2nc(-c3ccc(Cl)c(Cl)c3)ns2)ccc1OC1(C(=O)O)CCCC1 [Compound 15, 1-{4-[3-(3,4-Dichloro-phenyl)-[1,2,4]thiadiazol-5-ylmethylsulfanyl]-2-methyl-phenoxy}-cyclopentanecarboxylic acid]	> 3000	> 1000	> 3000	–	–	–	–	–
Cc1cc(SCc2nsc(-c3ccc(C(F)(F)F)cc3)n2)ccc1OC(C)(C)C(=O)O [Compound 16, 2-Methyl-2-{2-methyl-4-[5-(4-trifluoromethyl-phenyl)-[1,2,4]thiadiazol-3-ylmethylsulfanyl]-phenoxy}-propionic acid]	> 3000	26	425	–	–	–	–	–
Cc1cc(SCc2nsc(-c3ccc(Cl)cc3)n2)ccc1OC(C)(C)C(=O)O [Compound 18, 2-{4-[5-(4-Chloro-phenyl)-[1,2,4]thiadiazol-3-ylmethylsulfanyl]-2-methyl-phenoxy}-2-methyl-propionic acid]	> 3000	237	> 3000	–	–	–	–	–
Cc1cc(SCc2nsc(-c3ccc(Cl)c(Cl)c3)n2)ccc1OC(C)(C)C(=O)O [Compound 19, 2-{4-[5-(3,4-Dichloro-phenyl)-[1,2,4]thiadiazol-3-ylmethylsulfanyl]-2-methyl-phenoxy}-2-methyl-propionic acid]	> 3000	229	> 3000	–	–	–	–	–
Cc1ccc(-c2nsc(COc3ccc(OC(C)(C)C(=O)O)c(C)c3)n2)cc1Cl [Compound 20, 2-{4-[3-(3-Chloro-4-methyl-phenyl)-[1,2,4]thiadiazol-5-ylmethoxy]-2-methyl-phenoxy}-2-methyl-propionic acid]	> 3000	148	297	–	–	–	–	–
Cc1cc(OCc2nc(-c3ccc(C(F)(F)F)c(F)c3)ns2)ccc1OC(C)(C)C(=O)O [Compound 21, 2-{4-[3-(3-Fluoro-4-trifluoromethyl-phenyl)-[1,2,4]thiadiazol-5-ylmethoxy]-2-methyl-phenoxy}-2-methyl-propionic acid]	> 3000	3	85	–	–	–	–	–
Cc1ccc(-c2nsc(COc3ccc(OC(C)(C)C(=O)O)c(C)c3)n2)cc1C [Compound 22, 2-{4-[3-(3,4-Dimethyl-phenyl)-[1,2,4]thiadiazol-5-ylmethoxy]-2-methyl-phenoxy}-2-methyl-propionic acid]	> 3000	534	643	–	–	–	–	–
Cc1cc(OCc2nc(-c3ccc(OC(F)(F)F)cc3)ns2)ccc1OC(C)(C)C(=O)O [Compound 24, 2-Methyl-2-{2-methyl-4-[3-(4-trifluoromethoxy-phenyl)-[1,2,4]thiadiazol-5-ylmethoxy]-phenoxy}-propionic acid]	> 3000	12.3	93.5	–	–	–	–	–
Cc1cc(OCc2nc(-c3ccc(OC(F)(F)F)c(Cl)c3)ns2)ccc1OC(C)(C)C(=O)O [Compound 25]	> 3000	13	96.8	–	–	–	–	–
Cc1cc(OCc2nc(-c3ccc(Cl)c(Cl)c3)ns2)ccc1OC(C)(C)C(=O)O [Compound 26, 2-{4-[3-(3,4-Dichloro-phenyl)-[1,2,4]thiadiazol-5-ylmethoxy]-2-methyl-phenoxy}-2-methyl-propionic acid]	> 3000	114	504	–	–	–	–	–
Cc1cc(SCCc2nc(-c3ccc(Cl)c(Cl)c3)ns2)ccc1OC(C)(C)C(=O)O [Compound 27, 2-(4-{2-[3-(3,4-Dichloro-phenyl)-[1,2,4]thiadiazol-5-yl]-ethylsulfanyl}-2-methyl-phenoxy)-2-methyl-propionic acid]	> 1000	9.3	123	–	–	–	–	–
Cc1cc([S+]([O-])Cc2nc(-c3ccc(Cl)c(Cl)c3)ns2)ccc1OC(C)(C)C(=O)O (centres unmarked) [Compound a, 2-{4-[3-(3,4-Dichloro-phenyl)-[1,2,4]thiadiazol-5-ylmethanesulfinyl]-2-methyl-phenoxy}-2-methyl-propionic acid]	–	–	–	> 3000	412	> 3000	–	–
Cc1cc(SCc2csnc2-c2ccc(C(F)(F)F)cc2)ccc1OCC(=O)O [Compound d, {2-Methyl-4-[3-(4-trifluoromethyl-phenyl)-isothiazol-4-ylmethylsulfanyl]-phenoxy}-acetic acid]	–	–	–	> 3000	150	> 3000	–	–
Cc1cc(SCc2sc(-c3ccc(C(F)(F)F)cc3)nc2C)ccc1OCC(=O)O [GW501516]	–	–	–	–	–	–	induced	enhanced
